Test results taken from US20250059172A1, “INDAZOLE COMPOUND AND PHARMACEUTICAL” (NIPPON SHINYAKU CO., LTD., priority 2021, published 2025).
Structures can show the parent of a compound that is named as a salt.

How the values were obtained:
human A549 cells = assay: Inhibition test of PGE2 production using human A549 cells; assay type: cell-based; settings: IL-1β stimulated A549 cells, 24 h, PGE2 by HTRF, read-out: A549 cell inhibition of PGE2 production IC50
Description: 100 μL of RPMI medium (Sigma) comprising 10% FBS and human A549 cells was seeded in a 96-well plate to […] cells per well, and incubated overnight. The medium was then removed and washed with phosphate-buffered saline, and added to a DMSO solution of the test compound or RPMI medium comprising 3% FBS with DMSO to a final concentration of 0.1% DMSO. After incubation for 60 minutes, IL-1P (5 ng/well, BioLegend) was added to the solution. After incubation at 37° C. for 24 h, PGE2 in the medium was quantified using the HTRF kit (Cisbio International) and PGF2a was also quantified using the EIA kit (Cayman chemical). Solutions without the test compound were used as positive controls, and solutions without the test compound and IL-1β were used as negative controls. 100% activity was defined as production of PGE2 and PGF2a in the positive control minus those in the negative control. IC50 values were then determined using standard methods.

human mPGES-1 = human mPGES-1 (Homo sapiens (Human), UniProt O14684); assay: mPGES-1 inhibitory activity test; assay type: biochemical; settings: for inhibition at 0.01 µM: 10 nM test compound; for inhibition at 0.1 µM: 100 nM test compound; for IC50: microsomes of CHO-K1 cells expressing human mPGES-1, PGH2 1 μM, PGE2 by HTRF, read-out: mPGES-1 inhibition (IC50 nM)
Sequence of human mPGES-1 (O14684 whole entry): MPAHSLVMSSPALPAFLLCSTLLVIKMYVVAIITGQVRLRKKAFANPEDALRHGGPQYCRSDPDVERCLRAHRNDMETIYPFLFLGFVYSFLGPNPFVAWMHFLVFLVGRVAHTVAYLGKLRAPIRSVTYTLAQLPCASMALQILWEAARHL
Description: mPGES-1 microsomal specimens were prepared by transiently transfecting CHO-K1 cells (DS Pharma Biomedical Co. Ltd) with a plasmid encoding human mPGES-1 cDNA using FuGENE 6 Transfection Reagent (Promega). The prepared mPGES-1 microsome specimens were diluted in potassium phosphate buffer of pH 7.4 comprising 2.5 mM reduced glutathione (Sigma-Aldrich), DMSO solution of a test compound or DMSO was added to a final concentration of 1% of DMSO, and then incubated at 4° C. for 20 minutes. The enzymatic reaction was then initiated by adding a solution of PGH2 (Cayman chemical) substrate of a final concentration 1 μM and incubated at 4° C. for 60 seconds. The reaction was terminated by adding a solution of ferric chloride (STREM CHEMICALS) and citric acid (Wako Pure Chemical Industries) salt to a final concentration of 5 mg/mL and 250 mM, respectively. The formed PGE2 was quantified using the HTRF kit (Cisbio International). Solutions without the test compound were used as positive controls, and solutions without the test compound and microsomal specimens were used as negative controls. 100% activity was defined as production of PGE2 in the positive control minus that in the negative control. The percentage inhibition of production of PGE2 at final concentrations of 10 nM and 100 nM of the test compound was then calculated, or IC50 values were determined using standard methods.

| Structure (SMILES) | IC50 (human A549 cells) | inhibition at 0.01 µM (human mPGES-1) | inhibition at 0.1 µM (human mPGES-1) | IC50 (human mPGES-1) |
| --- | --- | --- | --- | --- |
| O=C(Nc1cccc2c1cnn2-c1ccc(F)cc1)c1cc(CNC(=O)C2(O)CC2)ccc1Cl [Example 154, 2-Chloro-N-[1-(4-fluorophenyl)-1H-indazol-4-yl]-5-({[(1-hydroxycyclopropyl)carbonyl]amino}methyl)benzamide] | 17.6 nM | 58% | 89% | – |
| COCC(=O)NCc1ccc(Cl)c(C(=O)Nc2cccc3c2cnn3-c2ccc(Cl)cc2)c1 [Example 148, 2-Chloro-N-[1-(4-chlorophenyl)-1H-indazol-4-yl]-5-([(methoxyacetyl)amino]methyl)benzamide] | 4.2 nM | 70% | 100% | – |
| CC(C)(C)C(=O)NCc1ccc(Cl)c(C(=O)Nc2cccc3c2cnn3CC2CCCCC2)c1 [Example 100, 2-Chloro-N-[1-(cyclohexylmethyl)-1H-indazol-4-yl]-5-{[(2,2-dimethylpropanoyl)amino]methyl}benzamide] | 1.9 nM | – | – | 1 nM |
| O=C(Nc1cccc2c1cnn2-c1cccc(OC(F)F)c1)c1cc(CNS(=O)(=O)C2CC2)ccc1Cl [Example 144, 2-Chloro-5-{[(cyclopropylsulfonyl)amino]methyl}-N-{1-[3-(difluoromethoxy)phenyl]-1H-indazol-4-yl}benzamide] | 1.8 nM | 73% | 100% | – |
| Cc1ccc(-n2ncc3c(NC(=O)c4cc(CNC(=O)CC(C)(C)C)ccc4Cl)cccc32)cc1C(F)(F)F [Example 254, 2-Chloro-5-{[(3,3-dimethylbutanoyl)amino]methyl}-N-{1-[4-methyl-3-(trifluoromethyl)phenyl]-1H-indazol-4-yl}benzamide] | 0.7 nM | 100% | 99% | – |
| CC(C)(C)C(=O)NCc1ccc(C(F)(F)F)c(C(=O)Nc2cccc3c2cnn3-c2cscn2)c1 [Example 201, 5-{[(2,2-Dimethylpropanoyl)amino]methyl}-N-[1-(1,3-thiazol-4-yl)-1H-indazol-4-yl]-2-(trifluoromethyl)benzamide] | 20.1 nM | 85% | 97% | – |
| O=C(Nc1cccc2c1cnn2-c1ccc(F)cc1)c1cc(CNS(=O)(=O)C2CC2)ccc1Cl [Example 157, 2-Chloro-5-{[(cyclopropylsulfonyl)amino]methyl}-N-[1-(4-fluorophenyl)-1H-indazol-4-yl]benzamide] | 14.6 nM | 100% | – | – |
| O=C(Cc1ccccc1)NCc1ccc(Cl)c(C(=O)Nc2cccc3c2cnn3-c2ccc(C(F)(F)F)cc2)c1 [Example 44, 2-Chloro-5-{[(phenylacetyl)amino]methyl}-N-{1-[4-(trifluoromethyl)phenyl]-1H-indazol-4-yl}benzamide] | 151 nM | – | – | 7.2 nM |
| N#CC1(C(=O)NCc2ccc(Cl)c(C(=O)Nc3cccc4c3cnn4-c3ccc(C(F)(F)F)cc3)c2)CC1 [Example 25, 2-Chloro-5-({[(1-cyanocyclopropyl)carbonyl]amino}methyl)-N-{1-[4-(trifluoromethyl)phenyl]-1H-indazol-4-yl}benzamide] | 8.6 nM | – | – | 3.9 nM |
| Cc1ccc(-n2ncc3c(NC(=O)c4cc(CNC(=O)C5(O)CC5)ccc4Cl)cccc32)cc1C(F)(F)F [Example 257, 2-Chloro-5-({[(1-hydroxycyclopropyl)carbonyl]amino}methyl)-N-{1-[4-methyl-3-(trifluoromethyl)phenyl]-1H-indazol-4-yl}benzamide] | 4.3 nM | 94% | 96% | – |
| O=C(Nc1cccc2c1cnn2-c1ccc(C(F)(F)F)cc1)c1cc(CNC(=O)C2CCOC2)ccc1Cl (stereo not drawn) [Example 34, N-[4-chloro-3-({1-[4-(trifluoromethyl)phenyl]-1H-indazol-4-yl}carbamoyl)benzyl]-tetrahydrofuran-3-carboxamide] | 20.7 nM | – | – | 31 nM |
| COc1ccc(-n2ncc3c(NC(=O)c4cc(CNC(=O)C5(C(F)(F)F)CC5)ccc4Cl)cccc32)cc1C(F)(F)F [Example 263, 2-Chloro-N-{1-[4-methoxy-3-(trifluoromethyl)phenyl]-1H-indazol-4-yl}-5-[({[1-(trifluoromethyl)cyclopropyl]carbonyl}amino)methyl]benzamide] | 0.3 nM | 89% | 85% | – |
| O=C(Nc1cccc2c1cnn2-c1ccc(C(F)(F)F)cc1)c1cc(CNC(=O)C2CC2)ccc1Cl [Example 1, 2-Chloro-5-{[(cyclopropylcarbonyl)amino]methyl}-N-{1-[4-(trifluoromethyl)phenyl]-1H-indazol-4-yl}benzamide] | 4.5 nM | – | – | 1.5 nM |
| COCC(=O)NCc1ccc(Cl)c(C(=O)Nc2cccc3c2cnn3-c2cccc(C(F)(F)F)c2)c1 [Example 222, 2-Chloro-5-{[(methoxyacetyl)amino]methyl}-N-{1-[3-(trifluoromethyl)phenyl]-1H-indazol-4-yl}benzamide] | 3.3 nM | 61% | – | – |
| CCOCc1ccc(-n2ncc3c(NC(=O)c4cc(CNC(=O)C(C)(C)C)ccc4Cl)cccc32)cn1 [Example 86, 2-Chloro-5-{[(2,2-dimethylpropanoyl)amino]methyl}-N-{1-[6-(ethoxymethyl)pyridin-3-yl]-1H-indazol-4-yl}benzamide hydrochloride] | 101 nM | – | – | 15.7 nM |
| CC(C)(C)C(=O)NCc1ccc(Cl)c(C(=O)Nc2cccc3c2cnn3-c2cncc(C3CC3)c2)c1 [Example 64, 2-Chloro-N-[1-(5-cyclopropylpyridin-3-yl)-1H-indazol-4-yl]-5-{[(2,2-dimethylpropanoyl)amino]methyl}benzamide hydrochloride] | 1.9 nM | – | – | 1.4 nM |
| O=C(Nc1cccc2c1cnn2-c1cccc(OC(F)(F)F)c1)c1cc(CNC(=O)C2CCCC2)ccc1Cl [Example 122, 2-Chloro-5-{[(cyclopentylcarbonyl)amino]methyl}-N-{1-[3-(trifluoromethoxy)phenyl]-1H-indazol-4-yl}benzamide] | 2.9 nM | 100% | – | – |
| CC(C)(CO)C(=O)NCc1ccc(Cl)c(C(=O)Nc2cccc3c2cnn3-c2ccc(Cl)cc2)c1 [Example 149, 2-Chloro-N-[1-(4-chlorophenyl)-1H-indazol-4-yl]-5-{[(3-hydroxy-2,2-dimethylpropanoyl)amino]methyl}benzamide] | 3.2 nM | 94% | – | – |
| O=C(Nc1cccc2c1cnn2Cc1ccccc1)c1cc(CNC(=O)C2CC2)ccc1Cl [Example 109, N-(1-benzyl-1H-indazol-4-yl)-2-chloro-5-{[(cyclopropylcarbonyl)amino]methyl}benzamide] | 119 nM | – | – | 2.04 nM |
| COc1ccc(-n2ncc3c(NC(=O)c4cc(CNC(=O)C5CCCC5)ccc4Cl)cccc32)cn1 [Example 270, 2-Chloro-5-{[(cyclopentylcarbonyl)amino]methyl}-N-[1-(6-methoxypyridin-3-yl)-1H-indazol-4-yl]benzamide] | 3.5 nM | 64% | 88% | – |
| COCc1ccc(-n2ncc3c(NC(=O)c4cc(CNC(=O)C(C)(C)C)ccc4Cl)cccc32)cn1 [Example 74, 2-Chloro-5-{[(2,2-dimethylpropanoyl)amino]methyl}-N-{1-[6-(methoxymethyl)pyridin-3-yl]-1H-indazol-4-yl}benzamide hydrochloride] | 15.6 nM | – | – | 1.3 nM |
| CC(C)(C)C(=O)NCc1ccc(Cl)c(C(=O)Nc2cccc3c2cnn3-c2ccc(OC(F)(F)F)cc2)c1 [Example 51, 2-Chloro-5-{[(2,2-dimethylpropanoyl)amino]methyl}-N-{1-[4-(trifluoromethoxy)phenyl]-1H-indazol-4-yl}benzamide] | 112 nM | – | – | 5 nM |
| Cc1ccc(-n2ncc3c(NC(=O)c4cc(CNC(=O)C(C)(C)C)ccc4C(F)(F)F)cccc32)cc1Cl [Example 200, N-[1-(3-chloro-4-methylphenyl)-1H-indazol-4-yl]-5-{[(2,2-dimethylpropanoyl)amino]methyl}-2-(trifluoromethyl)benzamide] | 0.9 nM | 69% | 103% | – |
| O=C(CC(F)(F)F)NCc1ccc(Cl)c(C(=O)Nc2cccc3c2cnn3-c2ccc(C(F)(F)F)cc2)c1 [Example 37, 2-Chloro-N-{1-[4-(trifluoromethyl)phenyl]-1H-indazol-4-yl}-5-{[(3,3,3-trifluoropropanoyl)amino]methyl}benzamide] | 2.5 nM | – | – | 8.9 nM |
